Reference: patent US20260284018A1, “DUAL INHIBITORS OF DYRK1A AND 5-HT2 FOR TREATING A BRAIN DISORDER” (THE REGENTS OF THE UNIVERSITY OF CALIFORNIA, priority 2023, published 2026)

Assays:
[1] = test system: embryonic rat cortical cultures; experiment: Total neurite length in embryonic rat cortical cultures; type: cell-based; conditions: embryonic rat cortical cultures (DIV=0), treated for 72 h
Protocol: Each data point represents a well average from two independent cultures. Data are represented as mean f SEM. *p<0.05, **p<0.01, ***p<0.001, ****p<0.0001, as compared to the vehicle control following a one-way ANOVA with Dunnett's post hoc test. VEH=vehicle; DON=250 nM donepezil; OKA=30 nM okadaic acid.

C57BL/6J mice = experiment: Head-twitch response; type: in vivo; conditions: for head-twitch response: intraperitoneal, up to 30 mg/kg
Protocol: Animals. Female C57BL/6J mice used in the head twitch response and locomotion assays, and Sprague Dawley dams used to generate embryonic cultures were obtained from Jackson Laboratory (Sacramento, CA). Mice were housed in a temperature- and humidity-controlled room maintained on a 12 h light/dark cycle in groups of four to five (same sex). Animals weighed between 17 and 30 g at the time of the experiments. All experimental procedures involving rodents were approved by the UC Davis Institutional Animal Care and Use Committee (IACUC) and adhered to principles described in the National Institutes of Health Guide for the Care and Use of Laboratory Animals. The University of California, Davis is accredited by the Association for Assessment and Accreditation of Laboratory Animal Care International (AAALAC).
Head-Twitch Response and Locomotion. Mice (9-10 weeks old) were injected intraperitoneally with compounds dissolved in 10% Kolliphor® EL (Sigma) and 10% DMSO in 0.9% saline (injection volume 5 mL/kg) or vehicle, placed in an empty cage, and filmed for 10 min. Locomotion was quantified using ANYmaze Video Tracking System, version 7.07 (Stoelting Co.). After 10 min, mice were then injected with 5-MeO-DMT dissolved in 0.9% saline (10 mg/kg, injection volume 5 mL/kg) or vehicle and filmed for 20 min. Cages were cleaned with 70% ethanol between experiments. […] The last 20 min of each video were scored by one trained observer blinded to the treatment conditions.

5-HT2C = 5-HT2C (Homo sapiens, UniProt P28335); experiment: Radioligand ([3H]-LSD) competition binding assays, 5-HT2C versus 5-HT2A; conditions: FIG. 4
Protocol: Radioligands Binding Assays. Binding buffer consisted of 50 mM Tris HCl, 10 mM MgCl2, 0.1 mM EDTA disodium dihydrate in autoclaved deionized water. The solution was adjusted to pH 7.4 with […] NaOH(aq) and stored at 4° C. This solution was used for membrane preparation generation as well as in saturation and competition binding assays.
For the generation of membrane preparations, 15-cm plates of PSYLI2 cells (HEK293T cell line stably expressing psychLight2; mycoplasma free) or HEK293T cells (ATCCCRL-11268; mycoplasma free) lipofected with pCMV-GRAB_5-HT were grown in Dulbecco's Modified Eagle Media (DMEM) (Fisher, 11995073) containing 10% fetal bovine serum (Fisher, 26-140-079) and 1% penicillin/streptomycin (Fisher, 15140-163). When the cells were >90% confluent, the media was removed, and the cells were washed with Dulbecco's Phosphate Buffered Saline (DPBS, 15 mL) (ThermoFisher, #14190-250). Next, DMEM (15 mL) lacking fetal bovine serum and penicillin/streptomycin was added, and the cells were serum-starved for 4-12 h. All but ~5 mL of the media was removed from the plates before placing them on ice. […] The suspension was transferred to 2.0 mL Eppendorf tubes in 1.0 mL aliquots, saving a single aliquot of 0.25-0.50 mL suspension to use for quantification of protein concentration via a Bradford assay. […]

Chain of 5-HT2C (P28335 33-458): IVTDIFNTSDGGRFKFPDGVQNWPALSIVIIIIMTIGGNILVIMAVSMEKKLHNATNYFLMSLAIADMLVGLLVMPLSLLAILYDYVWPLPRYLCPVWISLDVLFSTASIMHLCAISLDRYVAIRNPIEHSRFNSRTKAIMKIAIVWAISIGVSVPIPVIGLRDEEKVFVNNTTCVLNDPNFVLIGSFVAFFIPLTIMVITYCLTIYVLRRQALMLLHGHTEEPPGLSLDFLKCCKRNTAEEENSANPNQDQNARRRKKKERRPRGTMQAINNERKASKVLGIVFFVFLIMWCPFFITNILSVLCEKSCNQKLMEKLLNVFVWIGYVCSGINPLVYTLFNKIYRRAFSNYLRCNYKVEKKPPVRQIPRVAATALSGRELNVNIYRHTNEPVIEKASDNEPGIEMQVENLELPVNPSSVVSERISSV

SMILES	average total neurite length per neuron [1]	dampening of head-twitch response produced by 5-MeO-DMT (C57BL/6J mice; 30 mg/kg pretreatment, 10 mg/kg 5-MeO-DMT)	head-twitch response (C57BL/6J mice)	affinity for 5-HT2C relative to 5-HT2A (5-HT2C)
COc1ccc2c3ccnc(C)c3n(CCN(C)C)c2c1.O=C(O)/C=C/C(=O)O [HTW_A_8 fumarate, 2-(7-methoxy-1-methyl-9H-pyrido[3,4-b]indol-9-yl)-N,N-dimethylethan-1-amine Fumarate Salt (2:3)]	significantly increase average total neurite length per neuron	sufficient to dampen the head-twitch response	failed to produce a head-twitch response	higher affinity ligands for 5-HT2C than 5-HT2A
COc1ccc2c(c1)N(CCN(C)C)/C(=C/C(C)=O)S2.O=C(O)/C=C/C(=O)O [HTW_B_14 fumarate, (Z)-1-(3-(2-(dimethylamino)ethyl)-5-methoxybenzo[d]thiazol-2(3H)-ylidene)propan-2-one Fumarate Salt (1:1)]	significantly increase average total neurite length per neuron	–	failed to produce a head-twitch response	higher affinity ligands for 5-HT2C than 5-HT2A
